The values that follow come from patent US20040146519A1, “Inducing cellular immune responses to carcinoembryonic antigen using peptide and nucleic acid compositions” (priority 2002, published 2004).

Read-outs that look alike come from different tables or passages of the source.

One assay has as its target HLA-DRB1*0401 (Homo sapiens, UniProt P01903+P01911, A100K/A169T/F76Y/I96L/K127E/L162R/M171V/N62H/P40V/Q125Y/R42H/S133A/S149N/S66Y/V115G/V209L/W38E). As to the kind of experiment: HLA class II binding assay, DRB1*0401 (DR4w4).
In the next assay the target is HLA-A*0201 (Homo sapiens, UniProt P04439, D140Y/D185E/D98H/E176V/E277Q/G131W/G231S/I119V/I121R/I166T/I218V/L300P/L318F/N151K/N90K/P208A/P217A/Q86G/Q94H/R138H/R169H/T345S). As to the kind of experiment: HLA class I binding assay, purified HLA-A*0201. Particulars: Table XXII, binding affinity.
For the next assay, the target named is HLA-A*0202 (Homo sapiens, UniProt P04439, D140Y/D185E/D98H/E176V/E277Q/G131W/G231S/I119L/I121R/I166T/I218V/L180W/L300P/L318F/N151K/N90K/P208A/P217A/Q67R/Q86G/Q94H/R138H/R169H/T345S). The assay can be described thus: HLA class I binding assay, purified HLA-A*0202. Particulars: Table XXII, binding affinity.
The next assay deals with HLA-A*0203 (Homo sapiens, UniProt P04439, A173T/D140Y/D185E/D98H/E277Q/G131W/G231S/I119V/I121R/I166T/I218V/L180W/L300P/L318F/N151K/N90K/P208A/P217A/Q86G/Q94H/R138H/R169H/T345S). As to the kind of experiment: HLA class I binding assay, purified HLA-A*0203. The note with it: Table XXII, binding affinity.
The target in another assay is HLA-A*0206 (Homo sapiens, UniProt P04439, D140Y/D185E/D98H/E176V/E277Q/F33Y/G131W/G231S/I119V/I121R/I166T/I218V/L300P/L318F/N151K/N90K/P208A/P217A/Q86G/Q94H/R138H/R169H/T345S). As to the kind of experiment: HLA class I binding assay, purified HLA-A*0206. Particulars: Table XXII, binding affinity.
A further assay concerns the target HLA-A*6802 (Homo sapiens, UniProt P04439, A269V/D140Y/D185E/E176V/E277Q/E87N/F33Y/G231S/I121R/I166T/I218V/L180W/L300P/L318F/N151K/P208A/P217A/Q86R/R138H/R169H/S129P/T345S/V36M). As to the kind of experiment: HLA class I binding assay, purified HLA-A*6802. Particulars: Table XXII, binding affinity.
The subject of assay [1] is .221A2.1 cells pulsed with peptide. As to the kind of experiment: Primary in vitro CTL induction, 51Cr release against peptide-pulsed targets. Format: cell-based, human. The note with it: number of donors yielding a positive response/total tested. The method, then: (§1) The colon adenocarcinoma cell lines SW403 and […], the osteosarcoma line Saos-2 and the breast tumor line BT540 were obtained from the American Type Culture Collection (ATCC) (Rockville, Md.). The gastric cancer line, KATO III was obtained from the Japanese Cancer Research Resources Bank. […] The melanoma, colon and gastric cancer cells were treated with 100 U/ml IFN (Genzyme) for 48 hours at 37° C. before use as targets in the ^51Cr release and in situ IFN assays.
The monocytes were purified by plating 10×10^6 PBMC/well in a 6-well plate. After 2 hours at 37° C., the non-adherent cells were removed by gently shaking the plates and aspirating the supernatants. The wells were washed a total of three times with 3 ml RPMI to remove most of the non-adherent and loosely adherent cells. Three ml of complete medium containing 50 ng/ml of GM-CSF and 1,000 U/ml of IL-4 were then added to each well. […]
Induction of CTL with DC and Peptide: CD8+ T-cells were isolated by positive selection with Dynal immunomagnetic beads (Dynabeads® M-450) and the detacha-bead® reagent. […] The DC were collected and centrifuged at 1300 rpm for 5-7 minutes, washed once with PBS with 1% BSA, counted and pulsed with 40 μg/ml of peptide at a cell concentration of 1-2×10^6/ml in the presence of 3 μg/ml β2-microglobulin for 4 hours at 20° C. The DC were then irradiated (4,200 rads), washed 1 time with medium and counted again. […]

The subject of assay [2] is tumor targets that endogenously express CEA (SW403, HT-20, KATO III). As to the kind of experiment: 51Cr release against tumor targets (endogenous recognition). Format: cell-based, human. The note with it: number of donors yielding a positive response/total tested. The method, then:
as §1
Restimulation of the induction cultures with peptide-pulsed adherent cells: Seven and fourteen days after the primary induction the cells were restimulated with peptide-pulsed adherent cells. […] After expansion, activity was measured in both assays for a side by side comparison.
Seven days after the second restimulation, cytotoxicity was determined in a standard (5 hr) ^51Cr release assay by assaying individual wells at a single E:T. Peptide-pulsed targets were prepared by incubating the cells with 10 μg/ml peptide overnight at 37° C.
Adherent target cells were removed from culture flasks with trypsin-EDTA. […] At that time, 100 μl of supernatant were collected from each well and percent lysis was determined according to the formula: [(cpm of the test sample−cpm of the spontaneous ^51Cr release sample)/(cpm of the maximal ^51Cr release sample-cpm of the spontaneous ^51Cr release sample)]×100. […]

Where [3] appears, read: HLA Class II motif and supermotif-bearing epitopes.

On HLA-DRB1*0401 (setting [3]), `CC[C@H](C)[C@H](NC(=O)[C@H](CC(N)=O)NC(=O)[C@@H](N)CCC(N)=O)C(=O)N[C@H](C(=O)N[C@@H](CCC(N)=O)C(=O)N[C@@H](CC(N)=O)C(=O)N[C@@H](CC(=O)O)C(=O)N[C@H](C(=O)NCC(=O)N[C@@H](Cc1ccccc1)C(=O)N[C@@H](Cc1ccc(O)cc1)C(=O)N[C@H](C(=O)N[C@@H](CC(C)C)C(=O)N[C@@H](Cc1c[nH]cn1)C(=O)N[C@H](C(=O)O)C(C)C)[C@@H](C)O)[C@@H](C)O)[C@@H](C)CC` [CEA.110] displayed an IC50 of more than 8180 nM.

Consider `CC(C)C[C@H](NC(=O)[C@H](CCCNC(=N)N)NC(=O)[C@@H]1CCCN1C(=O)[C@H](CO)NC(=O)[C@@H](NC(=O)[C@@H]1CCCN1C(=O)[C@H](CC(C)C)NC(=O)[C@H](CO)NC(=O)[C@H](CCC(N)=O)NC(=O)[C@H](CC(N)=O)NC(=O)[C@H](CC(N)=O)NC(=O)[C@@H](NC(=O)[C@H](Cc1c[nH]c2ccccc12)NC(=O)[C@H](Cc1c[nH]c2ccccc12)NC(=O)[C@@H](N)CC(C)C)C(C)C)C(C)C)C(=O)O` [CEA.177], for which the IC50 at HLA-DRB1*0401 (DR supertype primary binding, read-out: DR4w4 binding affinity) stood at 1550 nM.

For the molecule `CC(C)C[C@H](NC(=O)[C@H](CC(C)C)NC(=O)[C@@H](NC(=O)[C@H](CC(C)C)NC(=O)[C@@H](NC(=O)[C@H](CCCNC(=N)N)NC(=O)[C@H](CC(N)=O)NC(=O)[C@H](CC(=O)O)NC(=O)[C@H](CC(N)=O)NC(=O)[C@H](CO)NC(=O)[C@H](CC(C)C)NC(=O)[C@H](CCC(N)=O)NC(=O)[C@H](CC(C)C)NC(=O)[C@@H](N)CCCNC(=N)N)[C@@H](C)O)[C@@H](C)O)C(=O)N[C@@H](CO)C(=O)O` [CEA.368], the IC50 on HLA-DRB1*0401 (setting [3]) was more than 8180 nM.

For the molecule `CC[C@H](C)[C@H](NC(=O)CN)C(=O)N[C@@H](CCSC)C(=O)N[C@H](C(=O)NCC(=O)N[C@H](C(=O)N[C@@H](CC(C)C)C(=O)N[C@H](C(=O)NCC(=O)N[C@H](C(=O)O)C(C)C)C(C)C)C(C)C)[C@@H](C)CC` [CEA.690], the IC50 on HLA-A*0201 stood at 64 nM; at HLA-A*0202, 205 nM; on HLA-A*0203, 31 nM; at HLA-A*0206 it was 142 nM; at HLA-A*6802, 500 nM.

Take `CC(C)C[C@H](NC(=O)[C@H](CC(N)=O)NC(=O)[C@H](CC(C)C)NC(=O)[C@H](CC(N)=O)NC(=O)[C@H](C)NC(=O)CNC(=O)[C@H](CO)NC(=O)[C@H](CC(C)C)NC(=O)[C@@H](N)Cc1ccc(O)cc1)C(=O)O` [compound 605]: the “CTL Wildtype” value in assay [1] (Table XXVIIa) was 2/2. For the same molecule, the “CTL Wild-type” value in assay [1] (Table XXVIIb) is 2/2. The “CTL Tumor” value in assay [2] (Table XXVIIa) and in assay [2] (Table XXVIIb) was 1/2 in each case.
